According to patent US20240316014A1, “METHOD FOR TREATING DEMYELINATING CONDITIONS” (ACADEMIA SINICA, priority 2023, published 2024):
Where two headings read alike, the source gives them in different places.

Columns and labels:
[1] = tested on: cuprizone-induced demyelination; settings: cited from earlier work
[2] = tested on: human primary fibroblasts (CRL2097); test: Morphology screening for conversion of fibroblasts into oligodendrocyte-like cells; format: cell-based; settings: for morphological changes in fibroblasts (dendritic and dome-shaped): human fibroblasts CRL2097, phase-contrast, vs solvent control (FIG. 1A)
Procedure: The human normal foreskin skin fibroblast primary cells (CRL-2097) were obtained from the ATCC. CRL-2097 cells were cultured at 37° C. with 5% CO2 in high glucose Dulbecco's Modified Eagle's Medium (HG-DMEM) (Life Technologies) supplemented with 10% fetal bovine serum (FBS) (Hyclone). Cell viability was determined by trypan blue staining. All of the cultures were free of mycoplasma. This study was approved by the Academia Sinica ethics committee (IRB number: AS-IRB-BM-17008, AS-IRB-BM-20038). Cells (1×10^4 per well) were plated on 24-well plates. Cells were cultured in HG-DMEM (Life Technologies) supplemented with 10% fetal bovine serum (FBS) (Hyclone) for 2 days. Then the medium was replaced with DMEM/F12 (Gibco) with 1% N2 supplement, 1% B27 supplement (all from Life Technologies), 20 ng/ml Platelet-Derived Growth Factor AA (PDGF-AA), 20 ng/ml Epidermal Growth Factor (EGF), 20 ng/mL Basic Fibroblast Growth Factor (bFGF), 20 ng/ml Neurotrophin-3 (NT3) (all from Peprotech). Then the cells were treated with 3 mM valproic acid (Tocris) for 2 days, 10 μM Y27632 (LC Laboratories), 10 μM SU9516 (R&D Systems), and 10 μM Forskolin (FSK) (Tocris) for 1 day. The reagent is listed in supplementary Table S1 and Table S2. To find out which chemicals could convert fibroblasts into oligodendrocyte-like cells, we screened chemically-treated cells based on morphological changes that included the formation of a dendritic morphology of neural lineage cells and the dome-shaped morphology of the cell bodies of oligodendrocytes. In a preliminary screen, two chemicals, Y27632 and SU9516, were identified that may be involved in triggering the generation of oligodendrocyte-like cells from human primary fibroblasts (CRL2097). […] To characterize the induced oligodendrocyte-like cells, we performed immunofluorescence staining to analyze the expression of oligodendrocyte-specific markers. […] Next, to optimize the two-chemical cocktail, we performed an additional high-throughput screen using a chemical library of over 1,500 molecules purchased from Selleckchem®. […]

[3] = tested on: human primary fibroblasts (CRL2097); test: Immunofluorescence staining of oligodendrocyte-specific markers in chemically treated fibroblasts; format: cell-based; settings: compared to the solvent control group (FIG. 1B)
Procedure: Cells (1×10^4 per well) were plated on 24-well plates. Cells were cultured in HG-DMEM (Life Technologies) supplemented with 10% fetal bovine serum (FBS) (Hyclone) for 2 days. Then the medium was replaced with DMEM/F12 (Gibco) with 1% N2 supplement, 1% B27 supplement (all from Life Technologies), 20 ng/ml Platelet-Derived Growth Factor AA (PDGF-AA), 20 ng/ml Epidermal Growth Factor (EGF), 20 ng/mL Basic Fibroblast Growth Factor (bFGF), 20 ng/ml Neurotrophin-3 (NT3) (all from Peprotech). Then the cells were treated with 3 mM valproic acid (Tocris) for 2 days, 10 μM Y27632 (LC Laboratories), 10 μM SU9516 (R&D Systems), and 10 μM Forskolin (FSK) (Tocris) for 1 day. The reagent is listed in supplementary Table S1 and Table S2. Cells were fixed with 4% formaldehyde for 15 minutes at room temperature, and washed once with 1×Phosphate Buffered Saline (PBS). Cells were permeabilized with 0.3% Triton X-100 for 5 minutes, washed twice with 1×PBS, and blocked in 2% Bovine Serum Albumin (BSA) in PBS for 30 minutes. […] Fluorescence was analyzed using a fluorescence microscope (Axiovert 200 M, Zeiss).

SMILES	morphological changes in fibroblasts (dendritic and dome-shaped) [2]	expression of oligodendrocyte-specific marker 4 (O4) by immunofluorescence [3]	also measured
CC(C)(C)[C@]1(O)CC2OC(=O)CC23C(=O)OC2OC(=O)[C@H](O)C231 (some centres unmarked) [Bilobalide]			remyelination ([1]; cuprizone-induced 6-week model, ref [36]): promote remyelination
COc1ccc2c(c1)c(CC(=O)O)c(C)n2C(=O)c1ccc(Cl)cc1 [Indomethacin]			remyelination ([1]; 10-week cuprizone-induced demyelination model, ref [33]): promote remyelination
COc1ccc2c(c1)/C(=C/c1cnc[nH]1)C(=O)N2 [SU9516, (Z)-3-((1H-imidazol-5-yl)methylene)-5-methoxyindolin-2-one]	induced morphological changes	higher 04 expression	
C[C@@H](N)[C@H]1CC[C@H](C(=O)Nc2ccncc2)CC1 [Y27632, Trans-4-[(1R)-1-Aminoethyl]-N-(4-pyridinyl)cyclohexanecarboxamide]	induced morphological changes	higher 04 expression	
CNC(=O)c1cc(Oc2ccc3nc(N[C@@H]4CCCC[C@H]4O)sc3c2)ccn1 [BLZ945]			remyelination ([1]; 5-week cuprizone-induced model, ref [34]): enhances remyelination
CCCC(CCC)C(=O)O [VPA, valproic acid]			conversion efficiency, VPA pretreatment vs co-treatment with YSF ([2]; VPA 2 days then YSF 1 day, or VPA co-treated with YSF 1 day (FIG. 1D)): only pretreatment could improve the conversion efficiency
